The record followed here is ChEMBL document CHEMBL4819117, “Probing cytochrome P450 (CYP) bioactivation with chloromethylindoline bioprecursors derived from the duocarmycin family of compounds” (Bioorg Med Chem, 2021).

This data set is described as follows: Drug metabolism in Wistar rat liver microsomes assessed as CYP-mediated metabolite M22 formation at 0.5 to 23.5 uM prewarmed for 5 mins followed by NADPH addition and measured after 30 mins by HPLC-fluorescence detector analysis. In kind it is ADME. Particulars: 35 min, dose 0.5-23.5 µM. Background: Liver microsomes are a subcellular fraction often used to study metabolism.

For `COc1ccc2[nH]c(C(=O)N3CC(CCl)c4ccccc43)cc2c1` (stereo unspecified), the Drug metabolism entry was “Metabolite_Detected”.
